Test results taken from patent publication US9707305B2, “Formulas for diagnosing and treating hormone-dependent cancers and cancers of the organs responsible for steroid hormone synthesis” (Commissariat à l'énergie atomique et aux énergies …, priority 2011, dated 2017).

Test: Biodistribution of the mixture of three free tracers (not formulated as nano-emulsion), comparative
Type: in vivo
Details: FVB female mouse
Description: In the following examples, the radioactivity was counted with the TRiCarb Counter (Ref: Packard, Liquid Scintillation Analyzers; Models 2200CA).
Fluobeam 700 (Fluoptics) is the apparatus with which the whole of the organs from the biodistribution were analyzed in fluorescence as well as the one with which the biodistribution kinetics of the nano-emulsions were established in vivo. This imaging system allows viewing of the fluorescence in spectral bands from 700 to 850 nm for a 650 nm excitation. The apparatus consists of an electric case containing the laser of class 3B, its power supply and an optical head containing the CCD camera.
As a comparison, a mixture of three tracers ([3H]CHE, [14C]CO and DiD) (not formulated as a nano-emulsion) was injected in order to observe the distribution of the tracers in the absence of droplets being used as a distribution carrier.

[1] = 2 h after injection of free tracers (not nano-emulsion)
[2] = 6 h after injection of free tracers (not nano-emulsion)
[3] = 16 h after injection of free tracers (not nano-emulsion)
[4] = 24 h after injection of free tracers (not nano-emulsion)

CCCCCCCCCCCCCCCCCCN1/C(=C/C=C/C=C/C2=[N+](CCCCCCCCCCCCCCCCCC)c3ccccc3C2(C)C)C(C)(C)c2ccccc21.[O-][Cl+3]([O-])([O-])[O-] [DiD, l,r-dioctadécyl-3,3,3′,3′-tetramethylindodicarbocyanine (DiD) perchlorate]
fluorescence intensity, Adrenal glands (MEAN) [1]: 730.45 photons per pixel, reduced to | fluorescence intensity, Brain (MEAN) [1]: 439.56 photons per pixel, reduced to | fluorescence intensity, Fat (MEAN) [1]: 280.30 photons per pixel, reduced to | fluorescence intensity, Heart (MEAN) [1]: 487.37 photons per pixel, reduced to | fluorescence intensity, Intestine (MEAN) [1]: 451.58 photons per pixel, reduced to | fluorescence intensity, Kidney (MEAN) [1]: 862.35 photons per pixel, reduced to | fluorescence intensity, Liver (MEAN) [1]: 2477.20 photons per pixel, reduced to | fluorescence intensity, Lung (MEAN) [1]: 848.08 photons per pixel, reduced to | fluorescence intensity, Muscle (MEAN) [1]: 211.84 photons per pixel, reduced to | fluorescence intensity, Ovary (MEAN) [1]: 954.70 photons per pixel, reduced to | fluorescence intensity, Pancreas (MEAN) [1]: 466.58 photons per pixel, reduced to | fluorescence intensity, Salivary gland (MEAN) [1]: 399.58 photons per pixel, reduced to | fluorescence intensity, Spleen (MEAN) [1]: 1162.07 photons per pixel, reduced to | fluorescence intensity, Uterus (MEAN) [1]: 694.28 photons per pixel, reduced to | fluorescence intensity, Adrenal glands (MEAN) [2]: 208.14 photons per pixel, reduced to | fluorescence intensity, Brain (MEAN) [2]: 116.17 photons per pixel, reduced to | fluorescence intensity, Fat (MEAN) [2]: 234.61 photons per pixel, reduced to | fluorescence intensity, Heart (MEAN) [2]: 346.63 photons per pixel, reduced to | fluorescence intensity, Intestine (MEAN) [2]: 363.09 photons per pixel, reduced to | fluorescence intensity, Kidney (MEAN) [2]: 573.78 photons per pixel, reduced to | fluorescence intensity, Liver (MEAN) [2]: 2293.21 photons per pixel, reduced to | fluorescence intensity, Lung (MEAN) [2]: 433.52 photons per pixel, reduced to | fluorescence intensity, Muscle (MEAN) [2]: 108.34 photons per pixel, reduced to | fluorescence intensity, Ovary (MEAN) [2]: 250.27 photons per pixel, reduced to | fluorescence intensity, Pancreas (MEAN) [2]: 191.73 photons per pixel, reduced to | fluorescence intensity, Salivary gland (MEAN) [2]: 232.98 photons per pixel, reduced to | fluorescence intensity, Spleen (MEAN) [2]: 3224.12 photons per pixel, reduced to | fluorescence intensity, Uterus (MEAN) [2]: 506.03 photons per pixel, reduced to | fluorescence intensity, Adrenal gland (MEAN) [3]: 1683.36 photons per pixel, reduced to | fluorescence intensity, Brain (MEAN) [3]: −24.23 photons per pixel, reduced to | fluorescence intensity, Fat (MEAN) [3]: 295.69 photons per pixel, reduced to | fluorescence intensity, Heart (MEAN) [3]: 186.72 photons per pixel, reduced to | fluorescence intensity, Intestine (MEAN) [3]: 505.69 photons per pixel, reduced to | fluorescence intensity, Kidney (MEAN) [3]: 382.29 photons per pixel, reduced to | fluorescence intensity, Liver (MEAN) [3]: 2954.59 photons per pixel, reduced to | fluorescence intensity, Lung (MEAN) [3]: 370.94 photons per pixel, reduced to | fluorescence intensity, Muscle (MEAN) [3]: 93.88 photons per pixel, reduced to | fluorescence intensity, Ovary (MEAN) [3]: 729.53 photons per pixel, reduced to | fluorescence intensity, Pancreas (MEAN) [3]: 101.87 photons per pixel, reduced to | fluorescence intensity, Salivary gland (MEAN) [3]: 271.01 photons per pixel, reduced to | fluorescence intensity, Spleen (MEAN) [3]: 3403.29 photons per pixel, reduced to | fluorescence intensity, Uterus (MEAN) [3]: 665.40 photons per pixel, reduced to | fluorescence intensity, Adrenal gland (MEAN) [4]: 653.68 photons per pixel, reduced to | fluorescence intensity, Brain (MEAN) [4]: 57.68 photons per pixel, reduced to | fluorescence intensity, Fat (MEAN) [4]: 344.99 photons per pixel, reduced to | fluorescence intensity, Heart (MEAN) [4]: 285.67 photons per pixel, reduced to | fluorescence intensity, Intestine (MEAN) [4]: 354.94 photons per pixel, reduced to | fluorescence intensity, Kidney (MEAN) [4]: 397.90 photons per pixel, reduced to | fluorescence intensity, Liver (MEAN) [4]: 2663.45 photons per pixel, reduced to | fluorescence intensity, Lung (MEAN) [4]: 300.36 photons per pixel, reduced to | fluorescence intensity, Muscle (MEAN) [4]: 289.03 photons per pixel, reduced to | fluorescence intensity, Ovary (MEAN) [4]: 989.32 photons per pixel, reduced to | fluorescence intensity, Pancreas (MEAN) [4]: 158.45 photons per pixel, reduced to | fluorescence intensity, Salivary gland (MEAN) [4]: 187.28 photons per pixel, reduced to | fluorescence intensity, Spleen (MEAN) [4]: 3880.70 photons per pixel, reduced to | fluorescence intensity, Uterus (MEAN) [4]: 636.69 photons per pixel, reduced to | accumulation in the liver and the spleen, tracer DiD alone (Tables 2 to 5 (2 to 24 h), free tracer): Strong accumulation

CCCCCCCCCCCCCCCCO[C@H]1CC[C@@]2(C)C(=CC[C@H]3[C@@H]4CC[C@H]([C@H](C)CCCC(C)C)[C@@]4(C)CC[C@@H]32)C1 [[3H]CHE, cholesteryl hexadecylether]
biodistribution, Adrenal glands (MEAN) [1]: 0.17 % of injected dose per gram of | biodistribution, Brain (MEAN) [1]: 0.00 % of injected dose per gram of | biodistribution, Fat (MEAN) [1]: 0.02 % of injected dose per gram of | biodistribution, Heart (MEAN) [1]: 0.08 % of injected dose per gram of | biodistribution, Intestine (MEAN) [1]: 0.03 % of injected dose per gram of | biodistribution, Kidney (MEAN) [1]: 0.09 % of injected dose per gram of | biodistribution, Liver (MEAN) [1]: 1.76 % of injected dose per gram of | biodistribution, Lung (MEAN) [1]: 29.10 % of injected dose per gram of | biodistribution, Muscle (MEAN) [1]: 0.04 % of injected dose per gram of | biodistribution, Ovary (MEAN) [1]: 0.04 % of injected dose per gram of | biodistribution, Pancreas (MEAN) [1]: 0.05 % of injected dose per gram of | biodistribution, Salivary gland (MEAN) [1]: 0.01 % of injected dose per gram of | biodistribution, Spleen (MEAN) [1]: 1.55 % of injected dose per gram of | biodistribution, Uterus (MEAN) [1]: 0.02 % of injected dose per gram of | biodistribution, Adrenal glands (MEAN) [2]: 0.36 % of injected dose per gram of | biodistribution, Brain (MEAN) [2]: 0.02 % of injected dose per gram of | biodistribution, Fat (MEAN) [2]: 0.05 % of injected dose per gram of | biodistribution, Heart (MEAN) [2]: 0.30 % of injected dose per gram of | biodistribution, Intestine (MEAN) [2]: 0.15 % of injected dose per gram of | biodistribution, Kidney (MEAN) [2]: 0.41 % of injected dose per gram of | biodistribution, Liver (MEAN) [2]: 3.23 % of injected dose per gram of | biodistribution, Lung (MEAN) [2]: 83.99 % of injected dose per gram of | biodistribution, Muscle (MEAN) [2]: 0.03 % of injected dose per gram of | biodistribution, Ovary (MEAN) [2]: 0.07 % of injected dose per gram of | biodistribution, Pancreas (MEAN) [2]: 0.09 % of injected dose per gram of | biodistribution, Salivary gland (MEAN) [2]: 0.09 % of injected dose per gram of | biodistribution, Uterus (MEAN) [2]: 0.04 % of injected dose per gram of | biodistribution, Adrenal gland (MEAN) [3]: 0.47 % of injected dose per gram of | biodistribution, Brain (MEAN) [3]: 0.02 % of injected dose per gram of | biodistribution, Fat (MEAN) [3]: 0.02 % of injected dose per gram of | biodistribution, Heart (MEAN) [3]: 0.35 % of injected dose per gram of | biodistribution, Intestine (MEAN) [3]: 0.13 % of injected dose per gram of | biodistribution, Kidney (MEAN) [3]: 0.53 % of injected dose per gram of | biodistribution, Liver (MEAN) [3]: 6.95 % of injected dose per gram of | biodistribution, Lung (MEAN) [3]: 124.35 % of injected dose per gram of | biodistribution, Muscle (MEAN) [3]: 0.05 % of injected dose per gram of | biodistribution, Ovary (MEAN) [3]: 0.19 % of injected dose per gram of | biodistribution, Pancreas (MEAN) [3]: 0.04 % of injected dose per gram of | biodistribution, Salivary gland (MEAN) [3]: 0.05 % of injected dose per gram of | biodistribution, Spleen (MEAN) [3]: 4.17 % of injected dose per gram of | biodistribution, Uterus (MEAN) [3]: 0.03 % of injected dose per gram of | biodistribution, Adrenal gland (MEAN) [4]: 0.31 % of injected dose per gram of | biodistribution, Brain (MEAN) [4]: 0.03 % of injected dose per gram of | biodistribution, Fat (MEAN) [4]: 1.42 % of injected dose per gram of | biodistribution, Heart (MEAN) [4]: 0.12 % of injected dose per gram of | biodistribution, Intestine (MEAN) [4]: 0.07 % of injected dose per gram of | biodistribution, Kidney (MEAN) [4]: 1.12 % of injected dose per gram of | biodistribution, Liver (MEAN) [4]: 1.12 % of injected dose per gram of | biodistribution, Lung (MEAN) [4]: 6.37 % of injected dose per gram of | biodistribution, Muscle (MEAN) [4]: 0.11 % of injected dose per gram of | biodistribution, Ovary (MEAN) [4]: 0.08 % of injected dose per gram of | biodistribution, Pancreas (MEAN) [4]: 0.03 % of injected dose per gram of | biodistribution, Salivary gland (MEAN) [4]: 0.14 % of injected dose per gram of | biodistribution, Spleen (MEAN) [4]: 10.63 % of injected dose per gram of | biodistribution, Uterus (MEAN) [4]: 0.34 % of injected dose per gram of | accumulation of the free radioactive tracers in the lungs (Tables 2 to 5 (2 to 24 h), free tracers): strong accumulation
